Consider three compounds from the NIST ThermoML archive (doi:10.1021/je500389t).

For data set [1] the following is noted: 101 kPa, Liquid; for viscosity: Capillary tube (Ostwald / Ubbelohde) method; for mass density: Pycnometric method.
A short description of data set [2]: xn = mol fraction of the nth substance listed. Conditions: 101 kPa, Liquid, Capillary tube (Ostwald / Ubbelohde) method, x2 = 0.

Numbers after ± are expanded uncertainties.

As to `COCCOCCOC` [2,5,8-trioxanonane], the viscosity is on record as 1.09 ± 0.04 mPa·s in data set [1] (293.15 K); 0.998 ± 0.041 mPa·s in data set [1] (298.15 K); 0.914 ± 0.04 mPa·s in data set [1] (303.15 K); 0.834 ± 0.04 mPa·s in data set [1] (308.15 K); 0.785 ± 0.04 mPa·s in data set [1] (313.15 K). Further, the mass density in data set [1] (293.15 K) worked out at 945.2 ± 2 kg/m3; in data set [1] (298.15 K) it was 939.8 ± 2 kg/m3; in data set [1] (303.15 K), 935 ± 2 kg/m3; in data set [1] (308.15 K), 930.7 ± 2 kg/m3; in data set [1] (313.15 K), 925.4 ± 2 kg/m3.
`O` [water]: the viscosity was found to be 1.01 ± 0.04 mPa·s in data set [1] (293.15 K); 0.89 ± 0.04 mPa·s in data set [1] (298.15 K); 0.801 ± 0.04 mPa·s in data set [1] (303.15 K); 0.723 ± 0.04 mPa·s in data set [1] (308.15 K); 0.656 ± 0.04 mPa·s in data set [1] (313.15 K).
With `O` [water] + COCCOCCOC, the viscosity in data set [2] (293.15 K) is recorded as 1.01 ± 0.04 mPa·s; in data set [2] (298.15 K), 0.89 ± 0.04 mPa·s; in data set [2] (303.15 K), 0.801 ± 0.04 mPa·s; in data set [2] (308.15 K), 0.723 ± 0.04 mPa·s; in data set [2] (313.15 K) it was 0.656 ± 0.04 mPa·s.

As a reminder, the viscosity is the internal friction of a fluid under shear. The term mass density denotes mass per unit of volume.
